From article PMC9606270, “First direct evidence for direct cell-membrane penetrations of polycationic homopoly(amino acid)s produced by bacteria” (Communications Biology, 2022)

B1: Cre: recombinant Cre recombinase (38 kDa), unconjugated control (protein, UniProt P06956 1-343, looked up)
Recombinase cre: MSNLLTVHQNLPALPVDATSDEVRKNLMDMFRDRQAFSEHTWKMLLSVCRSWAAWCKLNNRKWFPAEPEDVRDYLLYLQARGLAVKTIQQHLGQLNMLHRRSGLPRPSDSNAVSLVMRRIRKENVDAGERAKQALAFERTDFDQVRSLMENSDRCQDIRNLAFLGIAYNTLLRIAEIARIRVKDISRTDGGRMLIHIGRTKTLVSTAGVEKALSLGVTKLVERWISVSGVADDPNNYLFCRVRKNGVAAPSATSQLSTRALEGIFEATHRLIYGAKDDSGQRYLAWSGHSARVGAARDMARAGVSIPEIMQAGGWTNVNIVMNYIRNLDSETGAMVRLLEDGD
B2: 16: Cre recombinase (38 kDa) conjugated with 8 (conjugate, UniProt P06956 1-343, looked up)
Recombinase cre: B1 Recombinase cre
modifications: conjugated to ε-poly-α-lysine polymer 8

Columns and labels:
peptidases/proteinases = conditions: due to isopeptide-bond linkages; cited from earlier work
From the text: In this context, a bacterium-origin polycationic polymer, ε-PαL (1) (Fig. 1a), has garnered increasing interest in recent years as an alternative to canonical cationic CPPs. […] However, the cati ... || Practical intracellular delivery of biological macromolecules (biopharmaceuticals) would dramatically transform therapeutic approaches and foster experimental breakthroughs because numerous potential drug targets (cytokines, growth factors, and signal transduction proteins) are in the cell interior[44]. CPPs are among the most promising strategies, and CPP-driven technology currently revolves around natural and synthetic eupeptides. Poly-L/D-arginine[13]–[15], poly-L-histidine[45], and poly-L/D-lysine[46], which were chemically or genetically produced, have been used as CPPs. To enable the del ...

HeLa cells = conditions: cited from earlier work
From the text: page 5: Response to reviewers … Reviewer #1: Thank you so much for your valuable comments concerning our original manuscript. Your comment #1: The manuscript is well prepared and written except for the cytotoxicity of these polycationic isopeptides. […] However, we did n ...

[1] = cited from earlier work
From the text: To address the growing worldwide demand for CPPs, structurally and functionally distinct CPPs are required to circumvent the canonical CPP drawbacks such as cytotoxicity. This study, therefore, focused on the cytotoxicities of ε-PαL (1) against mammalian cells, while the nontoxicity of 1 in vivo has also been reported so that ε-PαL is used as a natural food preservative in several countries[1],[42]. However, the in vitro cytotoxicity of 1 in other cell lines has remained unclear. We therefore performed the MTT cell viability assay with 1 in K562, HepG2, and HEK293T cells in addition to HeLa ce ...

[2] = cited from earlier work; remark: listed apart in the source
From the text: (§1) In this context, a bacterium-origin polycationic polymer, ε-PαL (1) (Fig. 1a), has garnered increasing interest in recent years as an alternative to canonical cationic CPPs. […] However, the cati ...

mammalian cells = conditions: cited from earlier work
From the text: as §1

[3] = test system: Cre/loxP recombination in HEK293T cells; assay: Cre/loxP recombination by intracellularly delivered Cre (reporter plasmid pmKO_loxP_mAG); format: cell-based, human; conditions: HEK293T transfected with pmKO_loxP_mAG; 50 μM, 60 min, 37°C, then 24 h culture; microscopy; mean ± s.d. (n = 3)
From the text: The synthetic DNA fragment carrying two loxP sequences, one TGA stop codon, and the ampicillin resistance gene (Amp^r gene) (Supplementary Table 30) was ligated with pmKO1-MC1 digested by Bam HI and Eco RI. The resulting plasmid, pmKO_loxP, was digested with Eco RI and Hind III and ligated with the mAG gene fragment amplified by the PCR primers (pmKO1_mAG-F and pmKO1_mAG-R, Supplementary Table 29) to yield the Cre activity reporter plasmid (pmKO_loxP_mAG).
HEK293T cells were transfected with the plasmid pmKO_loxP_mAG using FuGENE Transfection (Promega) according to the manufacturer’s specifications. The cells were washed with DMEM medium and then treated with 50 µM of ε-PαL-Cre (16) at 37 °C for 60 min. The cells were then washed with PBS, followed by 100 µg ml^−1 heparin in PBS, and then two more times with PBS. Finally, fresh DMEM containing 10% FBS was added and incubated at 37 °C for 24 h to express a fluorescent protein. The live-cell imaging was captured by fluorescence microscopy (Leica DMi8).

Row | Molecule | Proteolytic resistance (peptidases/proteinases) | Gene recombination ratio (green cells) [3] | other results
1 | ε-oligo-L-β-lysine [Compound 2] | resistant to peptidases/proteinases |  | Cytotoxicity in HeLa cells (HeLa cells): no cytotoxicity
2 | ε-poly-L-α-lysine [Compound 1] | proteolytic resistance |  | Toxicity in vivo [1]: nontoxicity; Antimicrobial activities [2]: potent; Cytotoxicity (mammalian cells): nondetectable levels
3 | B1 |  | 6.8% ± 0.1% | 
4 | B2 |  | 65.6% ± 2.7% | 
